Laboratory results reported in the supplement of paper PMC10307832.

Columns and labels:
Experiment in all cases: relative viability (nuclei count vs DMSO), 5 days (fraction); higher = more cells survive
[1] = compound: COc1cc2nc(N3CCCN(C)CC3)nc(NC3CCN(Cc4ccccc4)CC3)c2cc1OC + C[C@@H](Oc1cc(-c2cnn(C3CCNCC3)c2)cnc1N)c1c(Cl)ccc(F)c1Cl [Crizotinib] (partner 1 µM)
How it was run: (§1)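 Lung cancer cell lines were pin-tool dosed in 1536-well plates on the day after seeding, with either a lone drug or a fixed anchor-drug dose plus five library-drug doses (not always all listed) in √10 steps. Nuclei were counted on 4× images after 5 days. Relative viability is the ratio of treated-well to vehicle-well nuclei counts, with each value a median of duplicate plates.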

AZD6482 + Trametinib = compound: Cc1cc([C@@H](C)Nc2ccccc2C(=O)O)c2nc(N3CCOCC3)cc(=O)n2c1 [AZD6482] + CC(=O)Nc1cccc(-n2c(=O)n(C3CC3)c(=O)c3c(Nc4ccc(I)cc4F)n(C)c(=O)c(C)c32)c1 [Trametinib] (partner 0.02 µM)
How it was run: as §1

AZD6482 + Palbociclib = compound: Cc1cc([C@@H](C)Nc2ccccc2C(=O)O)c2nc(N3CCOCC3)cc(=O)n2c1 [AZD6482] + CC(=O)c1c(C)c2cnc(Nc3ccc(N4CCNCC4)cn3)nc2n(C2CCCC2)c1=O [Palbociclib] (partner 0.5 µM)
How it was run: as §1

AZD6482 + Vorinostat = compound: Cc1cc([C@@H](C)Nc2ccccc2C(=O)O)c2nc(N3CCOCC3)cc(=O)n2c1 [AZD6482] + O=C(CCCCCCC(=O)Nc1ccccc1)NO [Vorinostat] (partner 1 µM)
How it was run: as §1

UMC-11
relative viability ([1]; first compound 0.2 µM): 0.614 | relative viability ([1]; first compound 0.6325 µM): 0.498 | relative viability ([1]; first compound 2 µM): 0.673 | relative viability ([1]; first compound 6.325 µM): 0.44 | relative viability (AZD6482 + Trametinib; first compound 0.08 µM): 0.681 | relative viability (AZD6482 + Trametinib; first compound 0.253 µM): 0.659 | relative viability (AZD6482 + Trametinib; first compound 0.8 µM): 0.705 | relative viability (AZD6482 + Trametinib; first compound 2.53 µM): 0.571 | relative viability (AZD6482 + Trametinib; first compound 8 µM): 0.9 | relative viability (AZD6482 + Palbociclib; first compound 0.08 µM): 0.342 | relative viability (AZD6482 + Palbociclib; first compound 0.253 µM): 0.297 | relative viability (AZD6482 + Palbociclib; first compound 0.8 µM): 0.321 | relative viability (AZD6482 + Palbociclib; first compound 8 µM): 0.324 | relative viability (AZD6482 + Vorinostat; first compound 0.08 µM): 0.326 | relative viability (AZD6482 + Vorinostat; first compound 0.253 µM): 0.347 | relative viability (AZD6482 + Vorinostat; first compound 0.8 µM): 0.384 | relative viability (AZD6482 + Vorinostat; first compound 2.53 µM): 0.341 | relative viability (AZD6482 + Vorinostat; first compound 8 µM): 0.331
